{"source": "paper PMC6614837", "about": "(Nucleic Acids Research, 2019)", "biological_target": "T1, RNase P holoenzyme (Thermotoga maritima, UniProt Q9X1H4)", "T1 construct": "GST (cleaved yes); made in house; host or cells: E. coli BL21(DE3)pLysS", "T1 sequence (Q9X1H4 1-117)": "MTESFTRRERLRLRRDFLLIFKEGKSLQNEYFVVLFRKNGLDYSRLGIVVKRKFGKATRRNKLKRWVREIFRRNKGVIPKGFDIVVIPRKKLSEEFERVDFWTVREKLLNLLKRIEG", "assay": "Biolayer interferometry binding to immobilized RNase P holoenzyme", "parameters": "species or system T. maritima", "conditions": "BLI, holoenzyme at 400 nM immobilized on Ni-NTA", "method": "Real-time binding assays of the holoenzyme, P RNA, P protein, the substrate minihelix and the 5′-leader to individual compounds were performed by biolayer interferometry using an Octet RED96 system (ForteBio). For the holoenzyme or P RNA, a 5′ biotinylated RNA oligonucleotide with the sequence 5′biotin-CAUUCCAGACGAU was immobilized on Super Streptavidin (SSA) biosensors. Then, a modified P RNA or holoenzyme was added. The P RNA modification consisted of a sequence with part of the P1 stem sequence complementary to the biotinylated oligonucleotide (AUCGUCUGGA) (Supplementary Figure S23A). P1 is far from the active site or other regions involved in specific interactions (Supplementary Figure S23B) ([19]). The activity of this construct was indistinguishable from the wild-type holoenzyme. Alternatively, the holoenzyme was immobilized through the His-tagged P protein from T. maritima at 0.05 mg/ml (3.4 μM) on Ni-NTA biosensors. […] Kinetic binding parameters were calculated using Data Analysis 8.2 (ForteBio, Inc.). […]\nFigure 4. […] Symbols represent the mean ± standard error as determined from three independent experiments at each concentration. […] RNase P holoenzyme was immobilized on Ni-NTA biosensors, incubated with purpurin at varying concentrations (0–400 μM), and then the association and dissociation pre-tRNA was monitored. […]", "data": [{"compound": "O=C1c2ccccc2C(=O)c2c(O)c(O)cc(O)c21", "note": "[Purpurin, 1,2,4-trihydroxyanthraquinone]", "values": [{"measurement": "Kd", "value": 13.2, "unit": "µM"}]}]}
